The values that follow come from US7122668B2, “Platinum complexes and their use in therapy” (priority 2002, dated 2006).

Read-outs that look alike come from different tables or passages of the source.

For assay [1], the system named is CH1. Nature of the assay: Microculture tetrazolium (MTS) cell survival assay. It counts as cell-based. The following applies: 24 hours incubation. As to the method: (§1) Cytotoxicity of the synthesized complexes was also tested by the MTS method^(21). Accordingly, the compounds were incubated for 24 hours with the corresponding cell lines and the cell survival in compound-treated cultures was evaluated.
(§2) The complexes were incubated for 24 hours with the above mentioned cell lines and the cell survival in compound-treated cultures was evaluated by the (microculture tetrazolium) MTS method as previously reported.

The subject of assay [2] is 41McisR. Nature of the assay: Microculture tetrazolium (MTS) cell survival assay. It counts as cell-based. Particulars: for resistance factor (IC50 resistant/IC50 sensitive): 41McisR/41M; for IC50: 24 hours incubation, MTS. How it is done:
as §1, §2

Assay [3] concerns 41M. Nature of the assay: Microculture tetrazolium (MTS) cell survival assay. It counts as cell-based. The following applies: 24 hours incubation. As to the method: as §1, §2
For assay [4], the system named is A2780cisR. Description: Microculture tetrazolium (MTS) cell survival assay. It counts as cell-based. Particulars: for IC50: 24 hours incubation, MTS; for resistance factor (IC50 resistant/IC50 sensitive): A2780cisR/A2780. As to the method: as §1, §2
Assay [5] deals with A2780. Description: Microculture tetrazolium (MTS) cell survival assay. It counts as cell-based. The following applies: 24 hours incubation. How it is done: as §1, §2
The test system of assay [6] is CH1cisR. Description: Microculture tetrazolium (MTS) cell survival assay. It counts as cell-based. The following applies: for IC50: 24 hours incubation, MTS; for resistance factor (IC50 resistant/IC50 sensitive): CH1cisR/CH1. How it is done:
as §1, §2

For assay [7], the system named is calf thymus DNA. Description: DNA binding (calf thymus DNA platination). The following applies: for t1/2 half time of the binding to calf thymus DNA: 10 mM NaClO4, 37° C., ri = 0.08, differential pulse polarography; for ΔTm, 0.01M Na+ / ΔTm, 0.2 M / ΔΔεmax, maximum of the positive CD band at around 275 nm: rb = 0.05; for ΔΔεmax, maximum of the positive CD band at around 275 nm: difference between control and platinated DNA. How it is done: The formation of calf thymus DNA platination was also examined. To this end, calf thymus DNA was incubated with different compounds (Table 3) in which the following parameters were determined: […]

In assay [8] the test system is C-26 cells. It counts as cell-based. The following applies: C-26 cells, mean ± SD. How it is done: (§3) A human ovarian carcinoma cell line (OV-1063), established at the Hadassah University hospital and human colon carcinoma cell line (C-26) were maintained in RPMI-1640 medium supplemented with 10% FCS, antibiotics and glutamine. All culture medium components were purchased from Biological Industries (Beit-HaEmek, Israel). Both cell lines were maintained at 37° C. in a water-jacketed CO2 incubator.
(§4) Cytotoxicity of the synthesized complexes was tested by the methylene blue (MB) staining assay^(19). A fixed number of exponentially growing cells in 200 μl medium were plated in 96-microwell, flat-bottomed plates. For each of the complexes tested, 4 well were used. Following 24 hr in culture, 20 μl of different concentration of the complexes were added to each well containing untreated cells. Normal saline was added to the controls. Cells were exposed to complexes for 4, 24, or 72 hr. At the end of exposure for a fixed time interval, the treated cells as well as parallel control cells were washed and incubation was continued in fresh medium until termination of the experiment. Following 72 hr of growth, cells were fixed by adding 50 μl of 2.5% of glutaraldehyde to each well for 15 min. Fixed cells were rinsed 10 times with fresh de-ionized water and once with borate buffer (0.1 M, pH=8.5), dried and stained with MB (100 μl of 1% solution in 0.1 M borate buffer, pH=8.5) for 1 hr at room temperature. Stained cells were rinsed thoroughly with de-ionized water to remove any non-cell-bound die and then dried. The MB bound to the fixed cells was extracted by incubation at 37° C. with 200 μl of 0.1N HCl for 1 hr, and the net optical density (OD) of the die in each well was determined by a plate spectrophotometer (Labsystems Multyskan BICHROMATIC, Finland) at 620 nm.

Assay [9] relates to OV-1063 cells. Description: Methylene blue (MB) assay of cell survival. It counts as cell-based, human. Particulars: mean ± SD. As to the method: as §3, §4
The mark [10] stands for this setting: listed as cis-[PtCl2(NH3)(pip)].
Setting [11] is: 4 h exposure, read-out: IC50, 4 h.
The mark [12] stands for this setting: 24 h exposure, read-out: IC50, 24 h.
The mark [13] stands for this setting: 72 h exposure, read-out: IC50, 72 h.
Where [14] appears, read: listed as cis-[PtCl2(NH3)(pic)].

A word on the IC50: it is the concentration needed to halve the response being measured. Take `C1CCNCC1.C1CCNCC1.[Cl][Pt][Cl]` [Complex 6, Trans-[PtCl2(piperidine)2]]: in [1] (listed as trans-PtCl2(pip)2), the IC50 was found to be 35 ± 2 µM.

Turning to `C1CCNCC1.N.[Cl][Pt][Cl]` [Complex 7, cis-[PtCl2(NH3)(piperidine)]], in assay [2], the “resistance factor (IC50 resistant/IC50 sensitive)” value (“resistance factor” for short) is “(4.9)” and the concentration for half-maximal inhibition (IC50) was found to be 315 ± 24 µM. This molecule also gave an IC50 in assay [3] of 64 ± 5 µM. Further, in assay [4], the IC50 was found to be 234 ± 17 µM and the “resistance factor” value turned out to be 9. Moreover, the midpoint of inhibition in [5], the IC50, lay at 26 ± 3 µM. In assay [6], inhibition was half-maximal at 263 ± 17 µM (IC50) and the “resistance factor” value is reported as “(7.3)”. Besides, 36 ± 4 µM corresponded to half-maximal inhibition in assay [1] (IC50). The “t1/2 half time of the binding to calf thymus DNA” value (“t1/2 half time of the binding” below) in [7] is listed as 113 min. Also, in assay [7] (setting [10]), the “% IEC/adduct, frequency of interstrand crosslinks” value (shortened to “% IEC/adduct, frequency”) stood at 5%; the “unwinding angle per adduct” value was found to be 13.2°; the “ΔTm, 0.01M Na+” value is reported as −2.5 0.C; the “ΔTm, 0.2 M” value is −6.0 0.C. For the same molecule, the “ΔΔεmax, maximum of the positive CD band at around 275 nm” value (shortened to “ΔΔεmax, maximum of the positive CD band”) in assay [7] (setting [10]) amounted to 0.93.

Regarding `C1CNCCN1.Cl.N.[Cl][Pt][Cl]` [Complex 8, Trans-[PtCl2(NH3)(piperazine)].HCl], in assay [2], the “resistance factor” value worked out at 3.0 and half-maximal inhibition (IC50) required 155 ± 12 µM. The IC50 in assay [3] is 52 ± 5 µM. Moreover, in assay [4], the IC50 came out at 44 ± 4 µM and the “resistance factor” value amounted to 8.8. The IC50 in [5] was 5 ± 1 µM. In addition, in assay [6], the midpoint of inhibition, the IC50, lay at 34 ± 4 µM and the “resistance factor” value is listed as 2.8. In assay [1], this molecule gave an IC50 of 12 ± 3 µM. Further, in assay [7], the “% IEC/adduct, frequency” value came out at 13%; the “unwinding angle per adduct” value is 26.4°; the “t1/2 half time of the binding” value came out at 20 min; the “ΔTm, 0.01M Na+” value is 6.3 0.C. Further, in [7], the “ΔTm, 0.2 M” value is on record as −1.9 0.C and the “ΔΔεmax, maximum of the positive CD band” value is on record as 0.01.

As for `C1CNCCN1.C1CNCCN1.Cl.[Cl][Pt][Cl]` [Complex 14, Trans-[PtCl2(piperazine)(piperazine)].HCl], the “resistance factor” value was 3.6 in [2], 2.5 in assay [4] and 2.0 in [6]. The IC50 worked out at 153 ± 10 µM in assay [2]; 43 ± 3 µM in assay [3]; 43 ± 3 µM in assay [4]; 17 ± 3 µM in assay [5]; 53 ± 3 µM in assay [6]; 26 ± 2 µM in [1].

Regarding `C1CNCCN1.Cl.N.[Cl][Pt@SP1][Cl]` [Complex 16, cis-[PtCl2(NH3)(piperazine)].HCl], the results for the “resistance factor” value in assay [2], in assay [4] and in assay [6] were 2.4, 2.5 and 2.0, respectively. Further, the IC50 is 112 ± 12 µM in assay [2]; 46 ± 3 µM in assay [3]; 25 ± 2 µM in assay [4]; 10 ± 1 µM in assay [5]; 56 ± 3 µM in [6]; 28 ± 2 µM in assay [1]. The “% IEC/adduct, frequency” value in assay [7] was determined as 6%. Besides, in assay [7], the “unwinding angle per adduct” value is recorded as 13°. Also, the “t1/2 half time of the binding” value in assay [7] is given as 35 min. Besides, in [7], the “ΔTm, 0.01M Na+” value was 3.5 0.C. In addition, the “ΔTm, 0.2 M” value in [7] is −4.5 0.C.

`C1CCNCC1.C1CCNCC1.[Cl][Pt][Cl]` [cis-PtCl2(pip)2, reference compound]: the “resistance factor” value is reported as 6 in assay [2], “(16.7)” in assay [4] and “(8)” in [6]. The half-maximal inhibitory concentration (IC50) came out at 300 ± 25 µM in [2]; 50 ± 3 µM in assay [3]; 250 ± 12 µM in assay [4]; 15 ± 2 µM in [5]; 280 ± 12 µM in assay [6]; 32 ± 2 µM in [1].

In the case of `Cc1ccncc1.N.[Cl][Pt][Cl]` [cis-[PtCl2(NH3)(4-picoline)]] [reference compound], the IC50 in [8] (setting [11]) amounted to 5.1 ± 1.2 µM; in [8] (setting [12]), 4.7 ± 2.4 µM; in assay [8] (setting [13]), 3.7 ± 1.6 µM; in [9] (setting [11]) it was 6 ± 2.2 µM; in assay [9] (setting [12]) it was 5.1 ± 1.9 µM; in [9] (setting [13]), 4 ± 1.7 µM. Moreover, the “t1/2 half time of the binding” value in assay [7] (setting [14]) came out at 21 min. Further, the “% IEC/adduct, frequency” value in assay [7] (setting [14]) was 4%. Further, the “unwinding angle per adduct” value in assay [7] (setting [14]) is given as 12°. Further, the “ΔTm, 0.01M Na+” value in assay [7] (setting [14]) was “+1.6 0.C”. The “ΔTm, 0.2 M” value in assay [7] (setting [14]) is recorded as −4.8 0.C. For the same molecule, the “ΔΔεmax, maximum of the positive CD band” value in assay [7] (setting [14]) worked out at 0.92.

With `Cc1ccncc1.N.[Cl][Pt][Cl]` [trans-[PtCl2(NH3)(4-picoline)]] [reference compound], the concentration for half-maximal inhibition (IC50) in assay [8] (setting [11]) came out at 12 ± 1.2 µM; in assay [8] (setting [12]), 11 ± 2 µM; in assay [8] (setting [13]), 11 ± 1.1 µM; in assay [9] (setting [11]), 18 ± 3.7 µM; in assay [9] (setting [12]) it was 16 ± 3.5 µM; in [9] (setting [13]), 14 ± 2.3 µM. Moreover, the “% IEC/adduct, frequency” value in assay [7] is 40%. Also, in assay [7], the “unwinding angle per adduct” value came out at 39.6°. In addition, in assay [7], the “t1/2 half time of the binding” value turned out to be 50 min. In addition, in assay [7], the “ΔTm, 0.01M Na+” value is given as “+7.2 0.C”. Also, the “ΔTm, 0.2 M” value in assay [7] is “+0.6 0.C”. The “ΔΔεmax, maximum of the positive CD band” value in assay [7] was −0.29.

With “Trans-[PtCl2(isopropylamine)(piperazine)].HCl [Complex 9]”, the “resistance factor” value in assay [2] turned out to be 3.2; in [4] it was 2.1; in assay [6], 5.0. In addition, the IC50 turned out to be 122 ± 8 µM in assay [2]; 38 ± 3 µM in [3]; 30 ± 2 µM in [4]; 14 ± 1 µM in assay [5]; 50 ± 3 µM in [6]; 10 ± 1 µM in [1].

“Trans-[PtCl2(n-butylamine)(piperazine)].HCl [Complex 10]”: the entries for the “resistance factor” value in [2], in [4] and in [6] were 1.5, 1.8 and 1.1, respectively. The IC50 in assay [2] was determined as 48 ± 3 µM; in assay [3] it was 32 ± 5 µM; in [4] it was 28 ± 2 µM; in assay [5] it was 16 ± 2 µM; in assay [6], 19 ± 3 µM; in assay [1] it was 17 ± 2 µM.

Take “Trans-[PtCl2(piperidine)(piperazine)].HCl [Complex 12]”: the “resistance factor” value in [2] was 3.2; in assay [4], 3.6; in [6], 3.9. The 50% inhibitory concentration (IC50) in assay [2] was 118 ± 9 µM; in assay [3], 37 ± 4 µM; in assay [4], 64 ± 5 µM; in [5] it was 18 ± 2 µM; in assay [6], 85 ± 7 µM; in assay [1], 22 ± 3 µM.

In the case of trans-PtCl2(NH3)(4-pip)Cl2, the entries for the “resistance factor” value in [2], in assay [4] and in [6] were 5.5, 4.0 and “(6.3)”, respectively. Besides, the IC50 was 150 ± 8 µM in [2]; 27 ± 2 µM in [3]; 20 ± 2 µM in assay [4]; 5 ± 0.7 µM in assay [5]; 94 ± 6 µM in assay [6]; 15 ± 2 µM in assay [1].
